Measurements as given in patent publication US4294833A, “Substituted 4-hydroxy-isophthalic acid picolylamides having a pharmaceutical activity in thromboembolic disorders” (Societa Italo-Britannica, priority 1977, dated 1981).

System: CaCl2-induced plasma coagulation
Assay: Anticoagulant activity on PRP, Hartert's thromboelastograph
Format: in vivo, New Zealand rabbits
Details: Oryctolagus cuniculus, ip, percent increase of total time for coagulum formation (r+k) vs before treatment; 25 mg/kg intraperitoneal, rabbits; read-out: anticoagulant activity (AC)
Procedure: Determination of the anticoagulant activity
The anticoagulant activity was also assessed on PRP of animals treated as described in the preceding methods, by using again Hartert's thromboelastograph method.
The plasma coagulation was induced by adding to 0.25 ml PRP a 1.29% solution of CaCl2.
The anticoagulant effect was determined as a percent increase of the total time for the coagulum formation (the index r+k can be obtained from the thromboelastograph diagram) in a plasma after treatment, referred to the same index obtained before the treatment (control). Again the dose level was 25 mg/kg for each compound under examination, intraperitoneally.
(§1) In tables I and II are further indicated for each compound the method of preparation; the melting point PF in °C; the platelet antiaggregant activity (AAP) expressed in terms of DI50 in mg/kg, referred to ADP and thrombin respectively; the antithrombin activity (AT) in %; the anticoagulant activity (AC) in %; the fibrinolytic activity (FL) in %; the acute toxicity (LD50) in mice, intraperitoneally, in mg/kg, as previously defined.

Compound | change in vivo at 25 mg/kg [%]
C#CCOc1ccc(C(=O)NCc2cccnc2)cc1C(=O)NCc1cccnc1 [Example 22] | 13.6
COc1ccc(C(=O)N(C)Cc2cccnc2)cc1C(=O)N(C)Cc1cccnc1 [Example 39] | 12.5
CC(C)CCOc1ccc(C(=O)NCc2cccnc2)cc1C(=O)NCc1cccnc1 [Example 13] | 24.5
C=CCOc1c(Cl)cc(C(=O)NCc2ccncc2)cc1C(=O)NCc1ccncc1 [Example 67] | 14.6
CC(C)(C)COc1c(Cl)cc(C(=O)NCc2cccnc2)cc1C(=O)NCc1cccnc1 [Example 28] | 19.6
CCCCCCOc1ccc(C(=O)NCc2ccncc2)cc1C(=O)NCc1ccncc1 [Example 60] | 22.2
COc1c(Cl)cc(C(=O)NCc2ccncc2)cc1C(=O)NCc1ccncc1 [Example 66] | 13.6
CC=CCOc1ccc(C(=O)N(C)Cc2cccnc2)cc1C(=O)N(C)Cc1cccnc1 [Example 53] | 15.1
COc1cc(C(=O)NCc2cccnc2)cc(C(=O)NCc2cccnc2)c1OC1CCCCC1 [Example 21] | 12.5
O=C(NCc1ccncc1)c1ccc(O)c(C(=O)NCc2ccncc2)c1 [Example 57] | 19
C=CCCOc1ccc(C(=O)NCc2cccnc2)cc1C(=O)NCc1cccnc1 [Example 8] | 14.2

System: platelet aggregation induced by ADP
Assay: Platelet aggregation inhibitory activity in vivo (Born aggregometer), ADP-induced
Design: species or system New Zealand rabbits
Details: Oryctolagus cuniculus, Platelet, ip, dose for 50% inhibition of ADP-induced aggregation curve; rabbits, intraperitoneal, blood 2, 4 and 6 hours after injection; read-out: platelet antiaggregant activity (AAP), DI50, ADP
Procedure: (§2) Determination of the platelet aggregation inhibitory activity in vivo
(§3) The activity of the above described compounds as platelet antiaggregant was tested in vivo on rabbits, by the Born aggregometer. The inhibition of the aggregation curve induced by ADP and thrombin was assessed with different drug concentrations according to the platelet reactivity. New Zealand rabbits which had been held fasting for 12 hours with water ad libitum, were anaesthetized with Nembutal in a dose of 35 mg/kg intramuscolarly. The blood was withdrawn from the carotidal arthery, before (control) and 2, 4, and 6 hours after the intraperitoneal injection of the compounds under examination (at the dose indicated below). The blood samples were taken up in a 3.8% aqueous solution of sodium citrate in a ratio 10:1 and thereupon centrifuged at 1500 r.p.m. for 10 minutes, for obtaining a PRP (platelet rich plasma). A portion of such a plasma was thereupon centrifuged at 8000 r.p.m. for 10 minutes, for obtaining a PPP (platelet lean plasma) which was used for zeroing the measuring apparatus.
(§4) From the results of said experiments, there was determined the dose of each product in mg/kg body weight able to induce a 50% inhibition of the aggregation curve (DI50) after treatment, referred to the curve obtained by the same control plasma before treatment.
as §1

Compound | ED50 [mg/kg]
C#CCOc1ccc(C(=O)NCc2cccnc2)cc1C(=O)NCc1cccnc1 [Example 22] | 36.5
COc1ccc(C(=O)N(C)Cc2cccnc2)cc1C(=O)N(C)Cc1cccnc1 [Example 39] | 59.8
CC(C)CCOc1ccc(C(=O)NCc2cccnc2)cc1C(=O)NCc1cccnc1 [Example 13] | 48.3
C=CCOc1c(Cl)cc(C(=O)NCc2ccncc2)cc1C(=O)NCc1ccncc1 [Example 67] | 55.6
CC(C)(C)COc1c(Cl)cc(C(=O)NCc2cccnc2)cc1C(=O)NCc1cccnc1 [Example 28] | 45.3
CCCCCCOc1ccc(C(=O)NCc2ccncc2)cc1C(=O)NCc1ccncc1 [Example 60] | 20.3
COc1c(Cl)cc(C(=O)NCc2ccncc2)cc1C(=O)NCc1ccncc1 [Example 66] | 67.2
CC=CCOc1ccc(C(=O)N(C)Cc2cccnc2)cc1C(=O)N(C)Cc1cccnc1 [Example 53] | 27.5
COc1cc(C(=O)NCc2cccnc2)cc(C(=O)NCc2cccnc2)c1OC1CCCCC1 [Example 21] | 35.8
O=C(NCc1ccncc1)c1ccc(O)c(C(=O)NCc2ccncc2)c1 [Example 57] | 26
C=CCCOc1ccc(C(=O)NCc2cccnc2)cc1C(=O)NCc1cccnc1 [Example 8] | 35.5

System: blood coagulum
Assay: Fibrinolytic activity, Fearnley method (lysis of blood coagulum in toto)
Format: in vivo
Details: Oryctolagus cuniculus, ip, 0.5 h, percent decrease of coagulum weight after 30 minutes at 37° C.; 25 mg/kg intraperitoneal, rabbits; read-out: fibrinolytic activity (FL)
Procedure: Determination of the fibrinolytic activity
The determination of the fibrinolytic activity was made following the Fearnley method for the lysis of the blood coagulum in toto.
0.2 ml of blood were withdrawn from the marginal vein of the ear of rabbits treated in the same way as the previously described tests, before and after an intraperitoneal injection of the compounds under test at a dose level of 25 mg/kg for each compound.
The blood samples were placed in test tubes containing 1.7 ml of phosphate buffer at pH 7.4 and 0.1 ml of thrombin (Roche Topostasin ® per os) at 50 units NIH/ml, and maintained in an ice bath. The test tubes were maintained at said temperature for 30 minutes and thereupon were transferred to a temperature controlled water bath at 37° C.
The fibrinolytic activity was determined as a percent decrease of the coagulum weight, measured after incubation for 30 minutes at 37° C.
as §1

Compound | fibrinolytic activity (percent decrease of coagulum weight) at 25 mg/kg [%]
C#CCOc1ccc(C(=O)NCc2cccnc2)cc1C(=O)NCc1cccnc1 [Example 22] | 29.2
COc1ccc(C(=O)N(C)Cc2cccnc2)cc1C(=O)N(C)Cc1cccnc1 [Example 39] | 19.2
CC(C)CCOc1ccc(C(=O)NCc2cccnc2)cc1C(=O)NCc1cccnc1 [Example 13] | 21.9
C=CCOc1c(Cl)cc(C(=O)NCc2ccncc2)cc1C(=O)NCc1ccncc1 [Example 67] | 27.1
CC(C)(C)COc1c(Cl)cc(C(=O)NCc2cccnc2)cc1C(=O)NCc1cccnc1 [Example 28] | 25.5
CCCCCCOc1ccc(C(=O)NCc2ccncc2)cc1C(=O)NCc1ccncc1 [Example 60] | 38.5
COc1c(Cl)cc(C(=O)NCc2ccncc2)cc1C(=O)NCc1ccncc1 [Example 66] | 20.2
CC=CCOc1ccc(C(=O)N(C)Cc2cccnc2)cc1C(=O)N(C)Cc1cccnc1 [Example 53] | 40.5
COc1cc(C(=O)NCc2cccnc2)cc(C(=O)NCc2cccnc2)c1OC1CCCCC1 [Example 21] | 28.3
O=C(NCc1ccncc1)c1ccc(O)c(C(=O)NCc2ccncc2)c1 [Example 57] | 32.1
C=CCCOc1ccc(C(=O)NCc2cccnc2)cc1C(=O)NCc1cccnc1 [Example 8] | 42.1

System: thrombin-induced coagulation of platelet rich plasma
Assay: Antithrombin activity on PRP, Hartert's thromboelastograph
Format: in vivo, New Zealand rabbits
Details: Oryctolagus cuniculus, Platelet, ip, percent decrease of index ma/[r+k] vs before treatment; 20 mg/kg intraperitoneal, rabbits
Procedure: Determination of the antithrombin activity
The antithrombin activity on the PRP (platelet rich plasma) obtained following the above described method was assessed by Hartert's thromboelastograph (Hellige model). The coagulation was induced by adding to 0.25 ml of plasma 0.06 ml of a thrombin solution (Roche Topostasin® per os) at 60 units*, pH 7.4**. The antithrombin activity was assessed in terms of a percent decrease of the index (ma/[r+k]) which was calculated from the thromboelastograph diagram, wherein r is the reaction time, k is the speed of the coagulum formation and ma is the maximum spread of the tong, after an intraperitoneal treatment with a dose of 20 mg/kg of each compound under examination, referred to the same index obtained before the treatment (control).
as §1

Compound | inhibition in vivo at 20 mg/kg [%]
C#CCOc1ccc(C(=O)NCc2cccnc2)cc1C(=O)NCc1cccnc1 [Example 22] | 33.1
COc1ccc(C(=O)N(C)Cc2cccnc2)cc1C(=O)N(C)Cc1cccnc1 [Example 39] | 26.6
CC(C)CCOc1ccc(C(=O)NCc2cccnc2)cc1C(=O)NCc1cccnc1 [Example 13] | 28.5
C=CCOc1c(Cl)cc(C(=O)NCc2ccncc2)cc1C(=O)NCc1ccncc1 [Example 67] | 39.8
CC(C)(C)COc1c(Cl)cc(C(=O)NCc2cccnc2)cc1C(=O)NCc1cccnc1 [Example 28] | 27.9
CCCCCCOc1ccc(C(=O)NCc2ccncc2)cc1C(=O)NCc1ccncc1 [Example 60] | 48.6
COc1c(Cl)cc(C(=O)NCc2ccncc2)cc1C(=O)NCc1ccncc1 [Example 66] | 25
CC=CCOc1ccc(C(=O)N(C)Cc2cccnc2)cc1C(=O)N(C)Cc1cccnc1 [Example 53] | 47.9
COc1cc(C(=O)NCc2cccnc2)cc(C(=O)NCc2cccnc2)c1OC1CCCCC1 [Example 21] | 32.5
O=C(NCc1ccncc1)c1ccc(O)c(C(=O)NCc2ccncc2)c1 [Example 57] | 38.4
C=CCCOc1ccc(C(=O)NCc2cccnc2)cc1C(=O)NCc1cccnc1 [Example 8] | 50.6

System: not listed separately
Assay: Acute toxicity, intraperitoneal
Details: mouse, in vivo, ip, male Swiss mice, intraperitoneal, 7 days observation; preliminary, by graphic interpolation; read-out: acute toxicity (LD50 / DL50)
Procedure: The acute toxicity limit was determined intraperitoneally on male Swiss mice, weighing 20±2 g, held fasting for 18 hours with water ad libitum.
The animals were maintained under observation for 7 days of treatment, by examining the general symptomatology and noting the death sequency. The preliminary DL50 in mg/kg body weight was calculated by graphic interpolation of the results as obtained.
as §1

Compound | LD50 at 168 h [mg/kg]
C#CCOc1ccc(C(=O)NCc2cccnc2)cc1C(=O)NCc1cccnc1 [Example 22] | 382
COc1ccc(C(=O)N(C)Cc2cccnc2)cc1C(=O)N(C)Cc1cccnc1 [Example 39] | 610
CC(C)CCOc1ccc(C(=O)NCc2cccnc2)cc1C(=O)NCc1cccnc1 [Example 13] | 173
C=CCOc1c(Cl)cc(C(=O)NCc2ccncc2)cc1C(=O)NCc1ccncc1 [Example 67] | 187
CC(C)(C)COc1c(Cl)cc(C(=O)NCc2cccnc2)cc1C(=O)NCc1cccnc1 [Example 28] | 215
CCCCCCOc1ccc(C(=O)NCc2ccncc2)cc1C(=O)NCc1ccncc1 [Example 60] | 206
COc1c(Cl)cc(C(=O)NCc2ccncc2)cc1C(=O)NCc1ccncc1 [Example 66] | 437
CC=CCOc1ccc(C(=O)N(C)Cc2cccnc2)cc1C(=O)N(C)Cc1cccnc1 [Example 53] | 215
COc1cc(C(=O)NCc2cccnc2)cc(C(=O)NCc2cccnc2)c1OC1CCCCC1 [Example 21] | 378
O=C(NCc1ccncc1)c1ccc(O)c(C(=O)NCc2ccncc2)c1 [Example 57] | 661
C=CCCOc1ccc(C(=O)NCc2cccnc2)cc1C(=O)NCc1cccnc1 [Example 8] | 362

System: platelet aggregation induced by thrombin
Assay: Platelet aggregation inhibitory activity in vivo (Born aggregometer), thrombin-induced
Design: species or system New Zealand rabbits
Details: Oryctolagus cuniculus, Platelet, ip, dose for 50% inhibition of thrombin-induced aggregation curve; rabbits, intraperitoneal, blood 2, 4 and 6 hours after injection; read-out: platelet antiaggregant activity (AAP), DI50, Thrombin
Procedure: as §2, §3, §4, §1

Compound | ED50 [mg/kg]
C#CCOc1ccc(C(=O)NCc2cccnc2)cc1C(=O)NCc1cccnc1 [Example 22] | 24.4
COc1ccc(C(=O)N(C)Cc2cccnc2)cc1C(=O)N(C)Cc1cccnc1 [Example 39] | 42
CC(C)CCOc1ccc(C(=O)NCc2cccnc2)cc1C(=O)NCc1cccnc1 [Example 13] | 27.1
C=CCOc1c(Cl)cc(C(=O)NCc2ccncc2)cc1C(=O)NCc1ccncc1 [Example 67] | 34.2
CC(C)(C)COc1c(Cl)cc(C(=O)NCc2cccnc2)cc1C(=O)NCc1cccnc1 [Example 28] | 31
CCCCCCOc1ccc(C(=O)NCc2ccncc2)cc1C(=O)NCc1ccncc1 [Example 60] | 17.5
COc1c(Cl)cc(C(=O)NCc2ccncc2)cc1C(=O)NCc1ccncc1 [Example 66] | 42.5
CC=CCOc1ccc(C(=O)N(C)Cc2cccnc2)cc1C(=O)N(C)Cc1cccnc1 [Example 53] | 19.6
COc1cc(C(=O)NCc2cccnc2)cc(C(=O)NCc2cccnc2)c1OC1CCCCC1 [Example 21] | 24.5
O=C(NCc1ccncc1)c1ccc(O)c(C(=O)NCc2ccncc2)c1 [Example 57] | 19.2
C=CCCOc1ccc(C(=O)NCc2cccnc2)cc1C(=O)NCc1cccnc1 [Example 8] | 25.7
